In US8802597B2, “Herbicidal pyrimidines” (E I du Pont de Nemours and Company, priority 2003, dated 2014):

Experiments:
[1] = test system: barnyardgrass (Echinochloa crus-galli); assay: Test C flooded paddy test; assay type: in vivo; details: Flood
Protocol: (§1) At the same time, plants selected from these crop and weed species and also winter barley (Hordeum vulgare), blackgrass (Alopecurus myosuroides), canarygrass (Phalaris minor), chickweed (Stellaria media), downy brome (Bromus tectorum), green foxtail (Setaria viridis), Italian ryegrass (Lolium multiflorum), wheat (Triticum aestivum), wild oat (Avena fatua) and windgrass (Apera spica-venti) were treated with postemergence applications of some of the test chemicals formulated in the same manner. Plants ranged in height from 2 to 18 cm (1- to 4-leaf stage) for postemergence treatments. Plant species in the flooded paddy test consisted of rice (Oryza sativa), umbrella sedge (Cyperus difformis), duck salad (Heteranthera limosa) and barnyardgrass (Echinochloa crus-galli) grown to the 2-leaf stage for testing. Treated plants and controls were maintained in a greenhouse for 12 to 14 days, after which time all species were compared to controls and visually evaluated. Plant response ratings, summarized in Table C, are based on a scale of 0 to 100 where 0 is no effect and 100 is complete control. A dash (-) response means no test result.

[2] = test system: duck salad (Heteranthera limosa); assay: Test C flooded paddy test; assay type: in vivo; details: Flood, scale 0 to 100
Protocol: as §1

rice (Oryza sativa) = assay: Test C flooded paddy test; assay type: in vivo; details: Flood, scale 0 to 100
Protocol: as §1

[3] = test system: umbrella sedge (Cyperus difformis); assay: Test C flooded paddy test; assay type: in vivo; details: Flood, scale 0 to 100
Protocol: as §1

[4] = 500 g ai/ha, scale 0 to 100 (0 no effect, 100 complete control)

Compound | melting point [°C] | Plant response rating, Barnyardgrass ([1]; 62 g ai/ha, scale 0 to 100) | Plant response rating, Barnyardgrass ([1]; 125 g ai/ha, scale 0 to 100) | Plant response rating, Barnyardgrass ([1]; 250 g ai/ha, scale 0 to 100) | Plant response rating, Barnyardgrass [1, 4] | Plant response rating, Ducksalad ([2]; 62 g ai/ha) | Plant response rating, Ducksalad ([2]; 125 g ai/ha) | Plant response rating, Ducksalad ([2]; 250 g ai/ha) | Plant response rating, Ducksalad ([2]; 500 g ai/ha) | Plant response rating, Rice (rice (Oryza sativa); 62 g ai/ha) | Plant response rating, Rice (rice (Oryza sativa); 125 g ai/ha) | Plant response rating, Rice (rice (Oryza sativa); 250 g ai/ha) | Plant response rating, Rice (rice (Oryza sativa); 500 g ai/ha) | Plant response rating, Sedge, Umbrella ([3]; 62 g ai/ha) | Plant response rating, Sedge, Umbrella ([3]; 125 g ai/ha) | Plant response rating, Sedge, Umbrella ([3]; 250 g ai/ha) | Plant response rating, Sedge, Umbrella ([3]; 500 g ai/ha)
COC(=O)c1nc(C2CC2)nc(N)c1I [Compound 7] | 145 to 146 | – | – | – | – | – | – | – | – | – | – | – | – | – | – | – | –
CCCOC(=O)c1nc(C2CC2)nc(N)c1Br [Compound 15] | – | 0 | 0 | 25 | 75 | 45 | 45 | 50 | 85 | 0 | 0 | 20 | 50 | 0 | 0 | 10 | 25
CCCCOC(=O)c1nc(C2CC2)nc(N)c1Br [Compound 16] | – | 0 | 0 | 15 | 50 | 65 | 65 | 75 | 85 | 0 | 0 | 0 | 65 | – | 0 | 50 | 55
CC(C)COC(=O)c1nc(C2CC2)nc(N)c1Br [Compound 17] | – | 0 | 0 | 0 | 50 | 0 | 0 | 80 | 80 | 0 | 0 | 45 | 75 | 0 | 0 | 20 | 25

Continued, in another order:

melting point [°C] | Compound | Plant response rating, Barnyardgrass ([1]; 62 g ai/ha, scale 0 to 100) | Plant response rating, Barnyardgrass ([1]; 125 g ai/ha, scale 0 to 100) | Plant response rating, Barnyardgrass ([1]; 250 g ai/ha, scale 0 to 100) | Plant response rating, Barnyardgrass [1, 4] | Plant response rating, Ducksalad ([2]; 62 g ai/ha) | Plant response rating, Ducksalad ([2]; 125 g ai/ha) | Plant response rating, Ducksalad ([2]; 250 g ai/ha) | Plant response rating, Ducksalad ([2]; 500 g ai/ha) | Plant response rating, Rice (rice (Oryza sativa); 62 g ai/ha) | Plant response rating, Rice (rice (Oryza sativa); 125 g ai/ha) | Plant response rating, Rice (rice (Oryza sativa); 250 g ai/ha) | Plant response rating, Rice (rice (Oryza sativa); 500 g ai/ha) | Plant response rating, Sedge, Umbrella ([3]; 62 g ai/ha) | Plant response rating, Sedge, Umbrella ([3]; 125 g ai/ha) | Plant response rating, Sedge, Umbrella ([3]; 250 g ai/ha) | Plant response rating, Sedge, Umbrella ([3]; 500 g ai/ha)
160 to 162 | Nc1nc(C2CC2)nc(C(=O)O)c1Br [Compound 8] | – | – | – | – | – | – | – | – | – | – | – | – | – | – | – | –
110 to 111 | CCOC(=O)c1nc(-c2ccccc2)nc(N)c1Br [Compound 18] | – | – | – | – | – | – | – | – | – | – | – | – | – | – | – | –
